This is an account of results in article PMC6080388 (Journal of Enzyme Inhibition and Medicinal Chemistry, 2017).

Data set [1] concerns the target T1, Aβ1–42 (Homo sapiens, UniProt P05067).
T1 construct: final Aβ1–42 concentration – 12.58 μM
In words: Aβ1–42 aggregation assay, Thioflavin T fluorescence. Conditions: Aβ1–42 12.58 μM, 24 h. The format is biochemical. Here is the method:
The Aβ1–42 aggregation assay was established using the Thioflavin T fluorescence method[22] ^, [26] ^, [27]. Experiment was performed by incubating the peptides previously dissolved in DMSO at room temperature for 24 h (final Aβ1–42 concentration – 12.58 μM) with or without the tested compounds at the different concentrations (5, 10, 25, 50, and100 μM). After incubation all samples were diluted in PBS – phosphate buffer (pH 7.4) containing Thioflavin T (5 μM). Subsequently, after 5 min incubation with the dye, fluorescence signal was measured (excitation wavelength 446 nm, emission wavelength 490 nm) on a monochromator based multimode microplate reader (Synergy H1, Bio-Tek, Winooski, VT), adapted for 96-well microtiter plates. Next the percent of inhibition on aggregation was calculated by the following expression: 100 – (IFi/IFo × 100). IFi and IFo were the fluorescence intensities obtained for absorbance in the presence and absence of inhibitors, respectively. The background values were deducted in the calculations.

Data set [2] concerns the target T2, EqBuChE (Equus caballus, UniProt P81908).
T2 construct: BuChE (EC 3.1.1.8, from equin serum); purchased Sigma Aldrich (Steinheim, Germany); host or cells: equine serum
In words: Kinetic characterisation of BuChE inhibition (Lineweaver–Burk). Type of data set: biochemical. The conditions noted are these: for Vmax: BuChE. Here is the method:
Kinetic analysis was performed using Ellman’s test[4] ^, [25]. […]. Total volume of tested medium (140 µl) comprised: DTNB solution (0.4 mg/ml), BuChE solution (4 U/ml), solution of the examined compound and different concentrations of the substrate ATC iodide. Absorbance was detected at 412 nm at room temperature after 8 min. Results were calculated and presented on the Lineweaver–Burk plot. Received KM and Vmax values allowed to define the type of enzyme inhibition.

For data set [3], the target named is T3, BuChE (EC 3.1.1.8, from equin serum) (Equus caballus, UniProt P81908).
T3 construct: BuChE (EC 3.1.1.8, from equin serum); purchased Sigma Aldrich (Steinheim, Germany); host or cells: equine serum
The data set is described as follows: biochemical. Type of data set: biochemical. The conditions noted are these: for BuChE inhibitory activity, fold higher than donepezil: in comparison to donepezil; for IC50: means ± SEM of three independent experiments, equine serum BuChE.
Method: (§2) The inhibitory activities of the tested compounds towards AChE and BuChE were performed using Ellman’s method[25]. All reagents including AChE (EC 3.1.1.7, from Electrophorus electricus), BuChE (EC 3.1.1.8, from equin serum), DTNB (Ellman’s reagent), and acetylthiocholine iodide (ATC iodide) were purchased from Sigma Aldrich (Steinheim, Germany). Analysis was executed in following procedure: AChE and BuChE solution was made by dissolving enzymes in phosphate buffer (pH 7.4) to obtain 2 and 4 U/ml, respectively. […] The study was performed in triplicate and recorded in 96-well microplates, using multifunctional microplate reader. The assay medium contained DTNB solution 0.4 mg/ml (76 µl), AChE (10 µl), various concentration of the examined compounds (14 µl) and ATC iodine solution (40 µl) at the concentration of 1 mM. For the reference value, 14 µl of the test compound solutions were replaced by phosphate buffer (pH 7.4). […] Inhibition activity was expressed as a percentage of the activity of the tested compound relative to the reference control.

Data set [4] deals with T4, AChE (EC 3.1.1.7, from Electrophorus electricus) (Electrophorus electricus, UniProt O42275).
T4 construct: purchased Sigma Aldrich (Steinheim, Germany)
The data set is described as follows: biochemical. The format is biochemical. The conditions noted are these: for Selectivity for AChE: IC50(BuChE)/IC50(AChE).
Method: as §2

Data set [5] addresses T5, EeAChE (Electrophorus electricus, UniProt O42275).
T5 construct: purchased Sigma Aldrich (Steinheim, Germany)
Type of data set: biochemical. The conditions noted are these: for Vmax: AChE. Here is the method: The kinetic characterisation was evaluated according to the Ellman’s method[4] ^, [25]. […]. The tested medium contained: DTNB solution (0.4 mg/ml), AChE solution (2 U/ml), solution of the examined compound and different concentrations of the substrate ACT iodide in a total volume of […]. Absorbance were detected at 412 nm at room temperature after 6 min. Received date were calculated and presented on the Lineweaver–Burk plot. Determinated the KM and Vmax values were used to define the type of enzyme inhibition.

The nature of data set [6]: MTT cytotoxicity assay on ATCC CCL-185 cells. Type of data set: cell-based, human. The conditions noted are these: human, ATCC CCL-185 cells (human lung carcinoma epithelial cells), control as 100%, read-out: cell viability. Here is the method: (§1) In the experiment, ATCC CCL-185 cell line was used (Epithelial cells from human lungs, carcinoma). Cells were seeded on 96-wells plate (F12 Thermo Fisher medium, Waltham MA) and incubated for 24 h. Then the cells were treated with various concentrations (0.22, 1.11, 2.22, 22.22, and 222.20 µM) of the tested compound dissolved in methanol and incubated for 48 h. Final methanol concentration in each well was 1 µl per 100 µl of medium. As a control, the same medium as for cells breeding was used with addition of 1 µl methanol and without studied compound. As a positive control pure methanol was used. After the time of incubation, procedure was carried out according to Vybrant MTT Cell Proliferation Assay Kit: cells were labelled with 10 µl of the 12 mM MTT stock solution, incubated at 37 °C for 4 h, all medium but 25 µl was removed from the wells, 50 µl of DMSO was added, incubated for 10 min at 37 °C and the absorbance at 540 nm was measured.

The subject of data set [7] is ATCC CCL-185 cell line (Epithelial cells from human lungs, carcinoma). In words: MTT cytotoxicity assay on ATCC CCL-185 cells. The format is cell-based. The conditions noted are these: 22.22 µM; 48 h. Here is the method: as §1
In general terms: Tetrazolium assays rely on reduction of a dye to a coloured formazan, in cell work by metabolically active cells.

In data set [8] the target is T6, hyaluronidase from bovine testes Type I-S (Bos taurus, UniProt Q2YDK3).
T6 sequence (Q2YDK3 36-553): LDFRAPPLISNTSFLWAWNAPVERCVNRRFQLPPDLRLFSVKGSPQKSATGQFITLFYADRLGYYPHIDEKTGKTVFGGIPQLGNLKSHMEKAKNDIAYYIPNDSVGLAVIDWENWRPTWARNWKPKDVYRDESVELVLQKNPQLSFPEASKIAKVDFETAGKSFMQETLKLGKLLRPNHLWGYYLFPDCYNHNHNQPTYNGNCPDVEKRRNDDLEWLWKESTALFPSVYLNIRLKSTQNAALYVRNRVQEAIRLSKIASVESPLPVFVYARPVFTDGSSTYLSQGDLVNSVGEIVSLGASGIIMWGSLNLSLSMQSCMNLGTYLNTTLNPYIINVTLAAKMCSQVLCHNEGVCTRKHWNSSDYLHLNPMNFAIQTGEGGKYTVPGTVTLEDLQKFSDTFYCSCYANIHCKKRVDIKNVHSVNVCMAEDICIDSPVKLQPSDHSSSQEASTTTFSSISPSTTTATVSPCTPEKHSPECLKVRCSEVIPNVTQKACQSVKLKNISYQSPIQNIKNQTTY
In words: Hyaluronidase inhibition test (turbidimetric). The format is biochemical. The conditions noted are these: means ± standard deviation; read-out: HYAL IC50 ± SD. Here is the method:
The inhibition study of hyaluronidase was carried out by turbidimetric method adapted to the 96-well plates and described previously by Michel et al[32] ^, [33]. […] Mixture was incubated in the dark at 37 °C for 10 min. Then, 40 µl of hyaluronic acid solution (0.03%, Sigma Aldrich, Steinheim, Germany) in monosodium phosphate buffer (pH 5.35) was added to the wells and the plate was incubated in the dark at 37 °C for 45 min. At the end, 300 µl of bovine serum albumin solution (0.1%, Serva) in sodium acetate buffer (pH 3.75) was added to the wells and incubated in the room temperature for 10 min. The changes in turbidity were measured at 600 nm by a microplate reader (BioTek, Winooski, VT). The assay was run out in three experiments in triplicate to calculate IC50 values. Heparin (WZF, Polfa) was used as a positive control.
The inhibition of hyaluronidase by the tested compound was calculated following the equation: % inhibition=100x1-AHA-AAN/AHA-AHYAL where AHA − absorbance of solution without the enzyme (positive control),
AHYAL − absorbance of solution without the tested compound (negative control), AAN − absorbance of solution with the tested compound.

The mark [9] stands for this setting: means ± SEM of three independent experiments, electric eel AChE, read-out: AChE IC50 ± SEM.

“And” between values parts separate entries of the source, which are not always exact repeats. Identical values can stand only once. Like-named read-outs stand apart in the source and are kept apart here.

T5 sequence (O42275 24-633): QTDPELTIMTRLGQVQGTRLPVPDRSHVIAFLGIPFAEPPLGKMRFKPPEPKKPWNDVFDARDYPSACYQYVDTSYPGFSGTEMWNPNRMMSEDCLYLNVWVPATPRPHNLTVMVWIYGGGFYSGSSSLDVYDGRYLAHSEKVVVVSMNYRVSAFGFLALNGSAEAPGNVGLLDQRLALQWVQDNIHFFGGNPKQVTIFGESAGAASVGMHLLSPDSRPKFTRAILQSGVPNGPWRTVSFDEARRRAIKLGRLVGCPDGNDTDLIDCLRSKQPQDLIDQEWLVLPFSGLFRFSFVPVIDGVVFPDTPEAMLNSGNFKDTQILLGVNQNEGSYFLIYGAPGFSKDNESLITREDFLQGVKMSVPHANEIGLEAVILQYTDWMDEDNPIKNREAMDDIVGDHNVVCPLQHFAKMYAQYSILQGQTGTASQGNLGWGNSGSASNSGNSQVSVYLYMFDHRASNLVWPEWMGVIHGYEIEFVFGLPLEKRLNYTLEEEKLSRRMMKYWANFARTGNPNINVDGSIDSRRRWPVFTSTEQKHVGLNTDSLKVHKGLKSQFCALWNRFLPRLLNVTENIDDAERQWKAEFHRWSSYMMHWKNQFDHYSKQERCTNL
T4 sequence (O42275 24-633): as above
T2 sequence (P81908 whole entry): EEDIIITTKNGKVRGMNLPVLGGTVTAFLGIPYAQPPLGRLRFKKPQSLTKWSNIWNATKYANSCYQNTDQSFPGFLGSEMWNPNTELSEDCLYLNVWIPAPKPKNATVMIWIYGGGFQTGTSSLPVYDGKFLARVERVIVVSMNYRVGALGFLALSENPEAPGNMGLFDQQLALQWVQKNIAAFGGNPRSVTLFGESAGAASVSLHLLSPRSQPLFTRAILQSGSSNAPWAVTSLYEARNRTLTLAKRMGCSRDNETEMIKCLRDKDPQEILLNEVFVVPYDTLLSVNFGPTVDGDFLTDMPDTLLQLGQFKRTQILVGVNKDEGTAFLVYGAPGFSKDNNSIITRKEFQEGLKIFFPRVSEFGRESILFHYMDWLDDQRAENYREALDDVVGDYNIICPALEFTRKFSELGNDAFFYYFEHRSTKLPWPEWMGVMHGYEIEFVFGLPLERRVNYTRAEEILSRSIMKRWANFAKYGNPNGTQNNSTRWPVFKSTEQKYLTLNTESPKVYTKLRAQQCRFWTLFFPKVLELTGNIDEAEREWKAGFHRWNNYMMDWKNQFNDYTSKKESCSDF
T3 sequence (P81908 whole entry): as above
T1 sequence (P05067 672-713 limits assumed): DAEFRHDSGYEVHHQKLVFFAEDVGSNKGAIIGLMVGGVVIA

Turning to `Cl.O=C(NCCCNc1c2c(nc3ccccc13)CCC2)c1cnc(Cl)c(Cl)c1` [3b, 5,6-Dichloro-N-[3-(2,3-dihydro-1H-cyclopenta[b]quinolin-9-ylamino)-propyl]-nicotinamide hydrochloride], the “Aβ aggregation (%)” value in data set [1] (3b 5 µM) came out at 74.31%; in data set [1] (3b 10 µM), 74.23%; in data set [1] (3b 25 µM) it was 51.82%; in data set [1] (3b 50 µM), 45.70%; in data set [1] (3b 100 µM), 7.22%. Moreover, the “Inhibition of Aβ aggregation (%)” value in data set [1] (3b 5 µM) was 25.7% and 25.69%; in data set [1] (3b 10 µM), 25.77%; in data set [1] (3b 25 µM) it was 48.18%; in data set [1] (3b 50 µM), 54.30%; in data set [1] (3b 100 µM) it was 92.8% and 92.78%. The Vmax was found to be 3333.3 A/min in data set [2] (inhibitor 3b 0.22 µM), 1666.7 A/min in data set [2] (inhibitor 3b 0.56 µM), 312.50 A/min in data set [5] (inhibitor 3b 0.11 µM) and 1666.67 A/min in data set [5] (inhibitor 3b 1.11 µM). In addition, the “type of EqBuChE inhibition” value in data set [2] (Lineweaver–Burk plot) was “mixed type of inhibition”. The “Selectivity for BuChE” value in data set [3] came out at 0.330. For the same compound, the “BuChE inhibitory activity, fold higher than donepezil” value in data set [3] is reported as 75 fold. Besides, the IC50 (as a rule, the midpoint of a concentration-inhibition curve) came to 0.158 ± 0.029 µM in data set [3] and 0.052 ± 0.002 µM in data set [4]. Also, the “Selectivity for AChE” value in data set [4] is recorded as 3.030. For the same compound, in data set [4] (in comparison to donepezil), the “AChE inhibitory potency, times higher than donepezil” value is approximately 2 times. For the same compound, the “type of EeAChE inhibition” value in data set [5] (Lineweaver–Burk plot) is recorded as “mixed type of inhibition”. For the same compound, the viability – broadly, the share of living cells, or the viability signal relative to a control – at 48 h, 222.2 µM in data set [6] (222.20 µM) was approximately 7%. For the same compound, in data set [6] (concentrations from 0.22 to 2.22 µM), the viability at 48 h is approximately 70%. Moreover, the cell viability result in data set [7] is reported as “suddenly decreased”.

For the compound Heparin, the IC50 in data set [8] came to 56.4 ± 0.78 µM.

For `Cl.O=C(NCCCCCCCCCNc1c2c(nc3ccccc13)CCC2)c1cnc(Cl)c(Cl)c1` [3h, 5,6-Dichloro-N-[9-(2,3-dihydro-1H-cyclopenta[b]quinolin-9-ylamino)-nonyl]-nicotinamide hydrochloride], the “Selectivity for BuChE” value in data set [3] (IC50(AChE)/IC50(BuChE)) came to 1.889. The values for the IC50 in data set [3] and in data set [4] (setting [9]) were 0.082 ± 0.03 µM and 0.155 ± 0.045 µM, respectively. Also, the “Selectivity for AChE” value in data set [4] is given as 0.529.

With `Cl.O=C(NCCCCCCCNc1c2c(nc3ccccc13)CCC2)c1cnc(Cl)c(Cl)c1` [3f, 5,6-Dichloro-N-[7-(2,3-dihydro-1H-cyclopenta[b]quinolin-9-ylamino)-heptyl]-nicotinamide hydrochloride], the “Selectivity for BuChE” value in data set [3] (IC50(AChE)/IC50(BuChE)) turned out to be 1.756. Also, the “BuChE inhibitory activity, fold higher than donepezil” value in data set [3] was 167 fold. The IC50 in data set [3] stood at 0.071 ± 0.012 µM; in data set [4] (setting [9]), 0.125 ± 0.021 µM. For the same compound, in data set [4], the “Selectivity for AChE” value turned out to be 0.569.

Take `Cl.O=C(NCCCCCCNc1c2c(nc3ccccc13)CCC2)c1cnc(Cl)c(Cl)c1` [3e, 5,6-Dichloro-N-[6-(2,3-dihydro-1H-cyclopenta[b]quinolin-9-ylamino)-hexyl]-nicotinamide hydrochloride]: the “Selectivity for BuChE” value in data set [3] (IC50(AChE)/IC50(BuChE)) worked out at 0.420. The IC50 in data set [3] turned out to be 0.127 ± 0.014 µM; in data set [4] (setting [9]), 0.053 ± 0.005 µM. Further, in data set [4], the “Selectivity for AChE” value stood at 2.380.

`Cl.O=C(NCCCCCCCCNc1c2c(nc3ccccc13)CCC2)c1cnc(Cl)c(Cl)c1` [3g, 5,6-Dichloro-N-[8-(2,3-dihydro-1H-cyclopenta[b]quinolin-9-ylamino)-octyl]-nicotinamide hydrochloride]: in data set [3] (IC50(AChE)/IC50(BuChE)), the “Selectivity for BuChE” value came to 1.407. Moreover, the IC50 in data set [3] stood at 0.108 ± 0.006 µM; in data set [4] (setting [9]), 0.152 ± 0.045 µM. The “Selectivity for AChE” value in data set [4] was 0.711.

As for `Cl.O=C(NCCNc1c2c(nc3ccccc13)CCC2)c1cnc(Cl)c(Cl)c1` [3a, 5,6-Dichloro-N-[2-(2,3-dihydro-1H-cyclopenta[b]quinolin-9-ylamino)-ethyl]-nicotinamide hydrochloride], the “Selectivity for BuChE” value in data set [3] (IC50(AChE)/IC50(BuChE)) is listed as 0.035. For the same compound, the figures for the IC50 in data set [3] and in data set [4] (setting [9]) were 1.86 ± 0.083 µM and 0.065 ± 0.007 µM, respectively. Also, the “Selectivity for AChE” value in data set [4] came out at 28.593.

`Cl.O=C(NCCCCNc1c2c(nc3ccccc13)CCC2)c1cnc(Cl)c(Cl)c1` [3c, 5,6-Dichloro-N-[4-(2,3-dihydro-1H-cyclopenta[b]quinolin-9-ylamino)-butyl]-nicotinamide hydrochloride]: the “Selectivity for BuChE” value in data set [3] (IC50(AChE)/IC50(BuChE)) is reported as 0.934. Moreover, the figures for the IC50 in data set [3] and in data set [4] (setting [9]) were 0.797 ± 0.086 µM and 0.744 ± 0.046 µM, respectively. In addition, in data set [4], the “Selectivity for AChE” value is recorded as 1.071.

Consider `Cl.O=C(NCCCCCNc1c2c(nc3ccccc13)CCC2)c1cnc(Cl)c(Cl)c1` [3d, 5,6-Dichloro-N-[5-(2,3-dihydro-1H-cyclopenta[b]quinolin-9-ylamino)-pentyl]-nicotinamide hydrochloride], for which the “Selectivity for BuChE” value in data set [3] (IC50(AChE)/IC50(BuChE)) is listed as 0.619. Also, the IC50 stood at 0.46 ± 0.038 µM in data set [3] and 0.285 ± 0.038 µM in data set [4] (setting [9]). Further, in data set [4], the “Selectivity for AChE” value worked out at 1.615.
